In patent US20250074880A1, “NOVEL QUINOLINE DERIVATIVES AND USES THEREOF” (Istituto Europeo di Oncologia S.r.l., priority 2021, published 2025):
Read-outs that look alike come from different tables or passages of the source.

Tests used:
[1] = tested on: MCF-7 primary breast adenocarcinoma cells; conditions: 10 μM, versus 0.1% DMSO, FIG. 7A-C
Description: The MCF-7 cells were seeded in six-well plates (300,000 cells/well), grown overnight (37° C., 5% CO2) during which they attached to the bottom plate. […] The cells were then fixated (10 min) with ice cold 100% methanol, washed twice with phosphate-buffered saline (PBS), and incubated with 3% (w/v) bovine serum albumin (BSA) in PBS containing 0.05% Tween 20 (room temperature, 1 h). Next, the cells were incubated (room temperature, 1 h) with human CREST patient serum (1:30 dilution, Antibodies Incorporated) to mark kinetochores, and mouse monoclonal anti-α-tubulin antibody (clone B512, 1:1000 dilution, Sigma) to mark microtubules, followed by incubation (room temperature, 30 min) with a secondary anti-mouse or anti-human IgG antibody that was conjugated either to chromophore AF647 (1:500, Invitrogen), AF488 (1:500 dilution, Invitrogen). DNA was stained with 0.1 μg/ml 4,6-diamidino-2-phenylindole (DAPI, Sigma Aldrich) and coverslips were mounted with Prolong Diamond Antifade (P36965, Invitrogen). To perform immunofluorescence imaging, the cells were captured on a confocal Nikon Eclipse Ti2-Spinning Disc V2 microscope (100× objective, NA=1.45, Nikon) equipped with an Andor iXon Ultra EMCCD camera. Images, acquired as Z-stacks (0.15 μm for each stack; about 80 stacks for mitotic cells) and analysed with ImageJ (Fiji) v1.53f51.

[2] = tested on: MCF-7 primary breast adenocarcinoma cells; conditions: for cell proliferation (summary statement): combined experimental findings
Description: The MCF-7 cells were seeded in six-well plates (150,000 cells/well), grown overnight (37° C., 5% CO2) during which they attached to the bottom plate. The cells were then treated with compound D5 (RS5982) at concentrations of 10 μM, 20 μM or 50 μM. In the negative and positive control experiments, the cells were treated with 0.25% DMSO and 1 μM of Paclitaxel, respectively. After 24 h and 48 h of incubation, the cells were pulse-labeled (30 min) with 10 μM of bromodeozyuridine (BrdU; stains actively replicating DNA), collected, and fixed with 95% ethanol. Next, the cells were treated with a BrdU-specific antibody (1:5 dilution, BD Bioscience 347580) and incubated for 1 h at room temperature. The secondary antibody used was AF488 Donkey anti mouse (dilution 1:50), which was incubated for 1 h at room temperature. Total DNA was stained overnight (4° C.) with 2.5 μg/ml of propidium iodide. Fluorescence-activated cell sorting (FACS) analysis next allowed the quantification of cells occurring in various stages of the cell cycle. Specifically, measurements were performed using MACSquant FACS (Miltenyi Biotech), and analysed by FlowJo software (Ashland). The G2/M cell cycle stage was evaluated by DNA content and negativity for BrdU incorporation, to avoid an overlap between G2 and late S-phase. The number of G2/M phase cells were plotted relative to that measured in the presence of 0.25% DMSO at each time point (fold change values=1).

[3] = tested on: MCF-7 primary breast adenocarcinoma cells
Description: The MCF-7 cells were seeded in six-well plates (150,000 cells/well), grown overnight (37° C., 5% CO2) during which they attached to the bottom plate. The cells were then treated with compound D5 (RS5982) or compound RS6008 at concentrations of 10 μM. 20 μM or 50 μM. In the negative and positive control experiments, the cells were treated with 0.25% DMSO and 1 μM of Paclitaxel, respectively. […] Finally, for each time point, the viable cell counts were plotted relatively to the number of viable cells measured in the presence of 0.25% DMSO.

[4] = molecular target: Ndc80 kinetochore subcomplex-MT binding (Homo sapiens, UniProt O14777); conditions: Ndc80 subcomplex:MTs 5 nM:10 nM; FIG. 3
Ndc80 kinetochore subcomplex-MT binding, sequence (O14777 whole entry): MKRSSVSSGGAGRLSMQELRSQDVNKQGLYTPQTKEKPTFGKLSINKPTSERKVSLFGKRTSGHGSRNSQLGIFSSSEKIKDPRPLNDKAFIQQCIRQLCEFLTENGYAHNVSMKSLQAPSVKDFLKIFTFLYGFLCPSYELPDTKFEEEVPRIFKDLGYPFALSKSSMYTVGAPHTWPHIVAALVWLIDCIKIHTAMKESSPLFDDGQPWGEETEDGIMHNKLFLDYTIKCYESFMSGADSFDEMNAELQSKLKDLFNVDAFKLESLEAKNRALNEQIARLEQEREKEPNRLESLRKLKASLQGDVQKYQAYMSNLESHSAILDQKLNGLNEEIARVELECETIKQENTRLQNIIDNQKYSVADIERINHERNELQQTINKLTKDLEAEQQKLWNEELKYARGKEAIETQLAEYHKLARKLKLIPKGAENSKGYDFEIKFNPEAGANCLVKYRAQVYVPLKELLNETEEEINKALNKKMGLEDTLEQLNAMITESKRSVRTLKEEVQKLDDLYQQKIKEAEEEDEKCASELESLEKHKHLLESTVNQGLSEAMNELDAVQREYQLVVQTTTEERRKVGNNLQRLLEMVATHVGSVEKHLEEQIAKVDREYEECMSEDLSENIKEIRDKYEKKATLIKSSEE
Ndc80 kinetochore subcomplex-MT binding, sequence (Q9BZD4 whole entry partner): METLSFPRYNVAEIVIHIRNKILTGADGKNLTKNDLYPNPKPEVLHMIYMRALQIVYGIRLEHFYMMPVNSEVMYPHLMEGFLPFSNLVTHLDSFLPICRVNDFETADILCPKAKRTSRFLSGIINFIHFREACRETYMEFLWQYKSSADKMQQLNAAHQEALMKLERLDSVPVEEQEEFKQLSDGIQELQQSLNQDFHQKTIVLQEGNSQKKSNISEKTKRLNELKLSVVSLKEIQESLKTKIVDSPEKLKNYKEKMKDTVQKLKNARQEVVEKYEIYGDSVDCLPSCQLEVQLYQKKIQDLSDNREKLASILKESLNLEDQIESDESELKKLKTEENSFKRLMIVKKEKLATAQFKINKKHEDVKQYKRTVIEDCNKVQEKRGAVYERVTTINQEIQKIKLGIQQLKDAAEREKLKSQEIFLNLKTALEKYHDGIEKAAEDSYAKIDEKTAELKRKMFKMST
Ndc80 kinetochore subcomplex-MT binding, sequence (Q8NBT2 whole entry partner): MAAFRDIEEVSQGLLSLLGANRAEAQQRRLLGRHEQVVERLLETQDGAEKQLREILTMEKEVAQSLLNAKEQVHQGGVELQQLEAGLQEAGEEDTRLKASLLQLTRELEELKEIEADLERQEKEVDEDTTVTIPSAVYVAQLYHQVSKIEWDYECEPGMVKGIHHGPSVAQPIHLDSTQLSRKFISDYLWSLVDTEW
Ndc80 kinetochore subcomplex-MT binding, sequence (Q9HBM1 whole entry partner): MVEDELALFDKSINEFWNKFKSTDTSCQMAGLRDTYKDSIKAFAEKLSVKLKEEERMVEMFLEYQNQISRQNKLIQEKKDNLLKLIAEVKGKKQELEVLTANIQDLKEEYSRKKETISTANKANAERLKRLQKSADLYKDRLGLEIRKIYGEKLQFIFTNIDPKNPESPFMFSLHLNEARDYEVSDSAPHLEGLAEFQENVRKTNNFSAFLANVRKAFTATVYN
Description: Next, the Ndc80 kinetochore subcomplex was bound to AlphaScreen® acceptor beads. In parallel, biotinylated and taxol-stabilised MTs were bound to streptavidin-covered AlphaScreen® donor beads. […] A decrease in light emission is caused by abrogated Ndc80 kinetochore subcomplex-MT binding.
The recombinant His6-tagged Ndc80 kinetochore subcomplex was bound to AlphaScreen® (Amplified Luminescent Proximity Homogeneous Assay Screen) Ni^2+-acceptor beads. In parallel, biotinylated and taxol-stabilised MTs (Cytoskeleton) were bound to streptavidin-covered AlphaScreen® donor beads (Perkin Elmer). […] A decrease in or loss of light emission is caused by a reduced or total loss of Ndc80 kinetochore subcomplex-MT binding.

Row | Compound | anomalous kinetochore activity (unbound sister chromatids, lagging chromosomes) compared to control cells [1] | cell proliferation (summary statement) [2] | cell viability ([3]; 50 μM, FIG. 6) | inhibition in the biochemical AlphaScreen binding assay [4] [%] | cell viability ([3]; 10, 20 or 50 μM, 24, 48, 72 h, relative to 0.25% DMSO, FIG. 4) | arrest at mitotic entry (G2/M phase) ([2]; 10, 20 or 50 μM, 24 and 48 h, relative to 0.25% DMSO, FIG. 5)
1 | Cc1ccc(-c2cc(C(=O)Nc3ccc(C(F)(F)F)cc3C(F)(F)F)c3ccccc3n2)o1 [RS6648, N-(2,4-bis(Trifluoromethyl)phenyl)-2-(5-methylfuran-2-yl) quinoline-4-carboxamide] | increase in anomalous kinetochore activity | delayed cell proliferation | – | – | – | –
2 | Cc1ccc(NC(=O)c2cc(-c3ccco3)nc3ccccc23)c(C)c1 [RS6008, N-(2,4-Dimethylphenyl)-2-(furan-2-yl) quinoline-4-carboxamide] | – | delayed cell proliferation | strong decrease in cell viability | – | – | –
3 | Cc1ccc(NC(=O)c2cc(-c3ccc(C)o3)nc3ccccc23)c(C)c1 [D5, N-(2,4-Dimethylphenyl)-2-(5-methylfuran-2-yl) quinoline-4-carboxamide] | increase in anomalous kinetochore activity | delayed cell proliferation | – | 59.93 | dose (D5)-dependent decrease in cell viability | enhanced arrest at mitotic entry (G2/M phase)
